ChEMBL document CHEMBL1149476, “Structure-activity relationship study of 9-aminoacridine compounds in scrapie-infected neuroblastoma cells” (Bioorg Med Chem Lett, 2006)

Experiments:
ScN2a [1] = assay: Cytotoxicity against mouse ScN2a cell line relative to control; type: functional; details: read-out: LD50 (the source's name)
HEK293 = assay: Cytotoxicity against HEK293 cells relative to control; type: functional; details: Homo sapiens, read-out: LD50 (the source's name)
HepG2 = assay: Cytotoxicity against HepG2 cells relative to control; type: functional; details: Homo sapiens, read-out: LD50 (the source's name)
ScN2a [2] = assay: Inhibition of PrPSc accumulation in mouse ScN2a cell line relative to control; type: functional, cell-based
[3] = Therapeutic index, LD50 for ScN2a cells/EC50 for PrPSc accumulation in ScN2a cells; type: cell-based; details: mouse, read-out: Ratio LD50/EC50

`CCN(CC)CCCC(C)Nc1c2ccc(Cl)cc2nc2ccc(OC)cc12` (stereo unspecified) [QUINACRINE] gave a CC50 (ScN2a [1]) of 9.6 µM, a CC50 (HEK293) of 7.6 µM and a CC50 (HepG2) of 7.9 µM. It also gave an EC50 (ScN2a [2]) of 0.5 µM.
With `CCN(CCCNc1c2ccc(OC)cc2nc2ccc(C(F)(F)F)cc12)Cc1ccccc1O` the CC50 (ScN2a [1]) was 13 µM, the CC50 (HEK293) was 23.1 µM and the CC50 (HepG2) was greater than 25 µM. The EC50 (ScN2a [2]) was 3.9 µM and the selectivity ratio [3] was 2.6.
In the case of `CCCN(CCC)CCCNc1c2ccc(Cl)cc2nc2ccc(OC)cc12`, the CC50 (ScN2a [1]) is reported as 6.4 µM, the EC50 (ScN2a [2]) is reported as 0.6 µM and the selectivity ratio [3] is reported as 10.9.
`CCCN(CCCNc1c2ccc(OC)cc2nc2ccc(C(F)(F)F)cc12)Cc1ccccc1` gave a CC50 (ScN2a [1]) of 18.3 µM, a CC50 (HEK293) of 22.4 µM and a CC50 (HepG2) greater than 25 µM. The EC50 (ScN2a [2]) was 7.1 µM and the selectivity ratio [3] was 2.6.
In the case of `CCCN(CC)CCCNc1c2ccc(OC)cc2nc2c(C)c(F)ccc12`, the CC50 (ScN2a [1]) is reported as 0.6 µM, the CC50 (HEK293) is reported as 0.8 µM and the CC50 (HepG2) is reported as 0.7 µM.
In the case of `CCCN(CCC)CCCNc1c2ccc(OC)cc2nc2ccc(C(F)(F)F)cc12`, the CC50 (ScN2a [1]) is reported as 11.7 µM, the CC50 (HEK293) is reported as 16.4 µM and the CC50 (HepG2) is reported as 18.1 µM. For the same compound, the EC50 (ScN2a [2]) was 0.4 µM and the selectivity ratio [3] was 28.6.
Compound `CCN(CC)CCCC(C)Nc1c2ccc(OC)cc2nc2ccc(Cl)cc12` (stereo unspecified) has a CC50 (ScN2a [1]) of 17.4 µM, an EC50 (ScN2a [2]) of 0.7 µM and a selectivity ratio [3] of 23.3.
For `CCCN(CC)CCCNc1c2ccc(OC)cc2nc2ccc(Cl)cc12`, the CC50 (ScN2a [1]) was 8.5 µM, the CC50 (HEK293) was 4.4 µM and the CC50 (HepG2) was 6.9 µM. For the same compound, the EC50 (ScN2a [2]) was 0.6 µM and the selectivity ratio [3] was 13.6.
`CCN(CCCNc1c2ccc(OC)cc2nc2c(C)c(F)ccc12)CC(C)C` gave a CC50 (ScN2a [1]) of 0.6 µM, a CC50 (HEK293) of 0.7 µM and a CC50 (HepG2) of 0.6 µM.
Work on `CCCN(CCC)CCCNc1c2ccc(OC)cc2nc2c(C)cccc12` yielded a CC50 (ScN2a [1]) of 1.4 µM, a CC50 (HEK293) of 0.7 µM and a CC50 (HepG2) of 0.7 µM. The EC50 (ScN2a [2]) was 1 µM and the selectivity ratio [3] was 1.3.
Compound `CCCN(CCC)CCCNc1c2ccc(OC)cc2nc2ccc(Cl)cc12` has a CC50 (ScN2a [1]) of 6 µM, a CC50 (HEK293) of 10.7 µM and a CC50 (HepG2) of 13.8 µM. For the same compound, the EC50 (ScN2a [2]) was 0.4 µM and the selectivity ratio [3] was 15.8.
`CCCN(CCCNc1c2ccc(OC)cc2nc2c(C)cccc12)CC(C)C` gave a CC50 (ScN2a [1]) of 1.3 µM, a CC50 (HEK293) of 1.4 µM and a CC50 (HepG2) of 0.7 µM. For the same compound, the EC50 (ScN2a [2]) was 1 µM and the selectivity ratio [3] was 1.3.
In the case of `CCCN(CC)CCCNc1c2ccc(OC)cc2nc2ccc(C(F)(F)F)cc12`, the CC50 (ScN2a [1]) is reported as 7.6 µM, the CC50 (HEK293) is reported as 14.6 µM and the CC50 (HepG2) is reported as 16.5 µM. For the same compound, the EC50 (ScN2a [2]) was 0.8 µM and the selectivity ratio [3] was 9.8.
